*1 amine or outer side, *2 acyl side, *3 side chain or, on linkers, in order; H or OH if unused. Where a SMILES comes first, the peptide text is derived from it. Bridges are numbered along the chain shown (N, C = ends). [ ]: non-standard residue; d: D form. The star is where a group is joined. ξ: configuration not given here. Phe(4-COOH) = N[C@@H](Cc1ccc(C(=O)O)cc1)C(=O)O; Bip = N[C@@H](Cc1ccc(-c2ccccc2)cc1)C(=O)O; NH(CH2)14COOH = O=C(O)CCCCCCCCCCCCCCN*; Phe(3-Me) = Cc1cccc(C[C@H](N)C(=O)O)c1; γGlu = O=C(O)[C@H](CCC(=O)[*:2])N[*:1]; hArg = N=C(N)NCCCC[C@H](N)C(=O)O; 4Pal = N[C@@H](Cc1ccncc1)C(=O)O; Cha = N[C@@H](CC1CCCCC1)C(=O)O; Cit = NC(=O)NCCC[C@H](N)C(=O)O; Ile(3ξ) = CCC(C)[C@H](N)C(=O)O; Thr(3ξ) = CC(O)[C@H](N)C(=O)O; dDab = NCC[C@@H](N)C(=O)O; Carboxymethyl = O=C(O)C*; NMeA = CN[C@@H](C)C(=O)O; Orn = NCCC[C@H](N)C(=O)O; Aun = NCCCCCCCCCCC(=O)O; Dab = NCC[C@H](N)C(=O)O; Dap = NC[C@H](N)C(=O)O; AEEA = NCCOCCOCC(=O)O; Piv = CC(C)(C)C(=O)*
molecular target: T1, PD-1/PD-L1 interaction (PE-labeled human PD-L1-Ig binding to Jurkat cell line over-expressing human PD-1) (Homo sapiens, UniProt Q15116); assay: Jurkat-PD-1 Cell Binding High-Content Screening Assay (CBA); settings: Jurkat-hPD-1 cells, PE-labeled PD-L1-Ig 20 nM final; read-out: Jurkat HPD1 PDL1 IC50
T1 construct: expressed in transfected cells; host or cells: Jurkat
In short: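 Jurkat cells overexpressing human PD-1 (8×10^3/well, DMEM + 10% FCS) preincubated with compound 2 h at 37 °C, then PE-labelled human PD-L1-Ig (20 nM final) for 1 h. Cells fixed in paraformaldehyde with Hoechst 33342; bound PD-L1 quantified by high-content imaging.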

T1 sequence (Q15116 25-288): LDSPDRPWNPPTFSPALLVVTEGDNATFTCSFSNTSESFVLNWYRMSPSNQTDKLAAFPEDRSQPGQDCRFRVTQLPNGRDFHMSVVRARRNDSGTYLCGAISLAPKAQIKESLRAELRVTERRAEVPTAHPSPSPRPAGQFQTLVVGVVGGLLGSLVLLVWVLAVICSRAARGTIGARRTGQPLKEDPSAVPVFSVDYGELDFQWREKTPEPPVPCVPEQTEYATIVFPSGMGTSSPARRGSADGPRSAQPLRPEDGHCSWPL

Row | Compound | IC50 [nM]
1 | CC(C)C[C@H]1NC(=O)[C@H](C)N(C)C(=O)[C@H](Cc2ccc(OCC(=O)O)cc2)NC(=O)[C@H](Cc2ccc(-c3ccccc3)cc2)NC(=O)[C@H](Cc2ccc(OCC(=O)O)cc2)NC(=O)[C@H](Cc2c[nH]c3ccccc23)NC(=O)[C@H](CC(=O)O)NC(=O)[C@H](Cc2ccncc2)NC(=O)[C@H](Cc2ccc(OCC(=O)O)cc2)NC(=O)CSC[C@@H](C(=O)N[C@@H](CCN)C(=O)NCCOCCOCC(=O)NCCCCCCCCCCC(=O)O)NC(=O)[C@H](CCCN)NC(=O)[C@H](C(C)C)NC(=O)[C@H](CC2CCCCC2)NC(=O)[C@H](CC(N)=O)NC1=O [Example 1380] ({CH2CO}-Y(Carboxymethyl)[4Pal]DWY(Carboxymethyl)[Bip]Y(Carboxymethyl)[NMeA][dL]N[Cha]V[Orn]C[Dab][AEEA][Aun]-OH; thioether N-14) | 119
2 | CC(C)C[C@H]1NC(=O)[C@H](C)N(C)C(=O)[C@H](Cc2ccc(OCC(=O)O)cc2)NC(=O)[C@H](Cc2ccc(-c3ccccc3)cc2)NC(=O)[C@H](Cc2ccc(OCC(=O)O)cc2)NC(=O)[C@H](Cc2c[nH]c3ccccc23)NC(=O)[C@H](CC(=O)O)NC(=O)[C@H](Cc2ccc(OCC(=O)O)cc2)NC(=O)[C@H]([C@@H](C)O)NC(=O)CSC[C@@H](C(=O)N[C@@H](CCN)C(=O)NCCOCCOCC(=O)NCCCCCCCCCCC(=O)O)NC(=O)[C@H]([C@@H](C)O)NC(=O)[C@H](C(C)C)NC(=O)[C@H](CC2CCCCC2)NC(=O)[C@H](CCN)NC1=O [Example 1390] ({CH2CO}-TY(Carboxymethyl)DWY(Carboxymethyl)[Bip]Y(Carboxymethyl)[NMeA][dL][Dab][Cha]VTC[Dab][AEEA][Aun]-OH; thioether N-14) | 27.3
3 | CC(C)C[C@@H]1NC(=O)[C@H](Cc2c[nH]c3ccccc23)NC(=O)[C@H](CC(=O)O)NC(=O)[C@H](Cc2ccc(C(=O)O)cc2)NC(=O)[C@H](Cc2ccc(OCC(=O)O)cc2)NC(=O)CSC[C@@H](C(=O)N[C@@H](CN)C(=O)NCCCCCCCCCCC(=O)O)NC(=O)[C@H](CCCNC(N)=O)NC(=O)[C@H](C(C)C)NC(=O)[C@H](CC2CCCCC2)NC(=O)[C@H](CCN)NC(=O)[C@@H](CC(C)C)NC(=O)[C@H](C)N(C)C(=O)[C@H](C(C)C)NC(=O)[C@H](Cc2ccc(-c3ccccc3)cc2)NC1=O [Example 1098] ({CH2CO}-Y(Carboxymethyl)[Phe(4-COOH)]DWL[Bip]V[NMeA][dL][Dab][Cha]V[Cit]C[Dap][Aun]-OH; thioether N-14) | 8.6
4 | Cc1cccc(C[C@@H]2NC(=O)[C@H](CC(=O)O)NC(=O)[C@H](Cc3ccc(OCC(=O)O)cc3)NC(=O)[C@H]([C@@H](C)O)NC(=O)CSC[C@@H](C(=O)N[C@@H](CCCN)C(=O)NCCOCCOCC(=O)NCCCCCCCCCCC(=O)O)NC(=O)[C@H](CO)NC(=O)[C@H](C(C)C)NC(=O)[C@H](CC3CCCCC3)NC(=O)[C@H](CCN)NC(=O)[C@@H](CC(C)C)NC(=O)[C@H](C)N(C)C(=O)[C@H](Cc3ccc(OCC(=O)O)cc3)NC(=O)[C@H](Cc3ccc(-c4ccccc4)cc3)NC(=O)[C@H](Cc3ccc(OCC(=O)O)cc3)NC2=O)c1 [Example 1372] ({CH2CO}-TY(Carboxymethyl)D[Phe(3-Me)]Y(Carboxymethyl)[Bip]Y(Carboxymethyl)[NMeA][dL][Dab][Cha]VSC[Orn][AEEA][Aun]-OH; thioether N-14) | 28
5 | Cc1cccc(C[C@@H]2NC(=O)[C@H](CC(=O)O)NC(=O)[C@H](Cc3ccncc3)NC(=O)[C@H](Cc3ccc(OCC(=O)O)cc3)NC(=O)CSC[C@@H](C(=O)NCC(=O)N[C@@H](CCC(=O)NCCOCCOCC(=O)N[C@@H](CCC(=O)NCCOCCOCC(=O)NCCCCCCCCCCC(=O)O)C(=O)O)C(=O)O)NC(=O)[C@H](CO)NC(=O)[C@H](C(C)C)NC(=O)[C@H](CC(C)C)NC(=O)[C@H](CC(N)=O)NC(=O)[C@@H](CC(C)C)NC(=O)[C@H](C)N(C)C(=O)[C@H](C(C)C)NC(=O)[C@H](Cc3ccc(-c4ccccc4)cc3)NC(=O)[C@H](CC(C)C)NC2=O)c1 [Example 1016] ({CH2CO}-Y(Carboxymethyl)[4Pal]D[Phe(3-Me)]L[Bip]V[NMeA][dL]NLVSCG[γGlu][AEEA][γGlu][AEEA][Aun]-OH; thioether N-14) | 29.8
6 | Cc1cccc(C[C@@H]2NC(=O)[C@H](CC(=O)O)NC(=O)[C@H](Cc3ccc(OCC(=O)O)cc3)NC(=O)[C@H](CCNC(=O)C(C)(C)C)NC(=O)CSC[C@@H](C(=O)N[C@@H](CCN)C(=O)NCCCCCCCCCCC(=O)O)NC(=O)[C@H](CCC(N)=O)NC(=O)[C@H](C(C)C)NC(=O)[C@H](CC3CCCCC3)NC(=O)[C@H](CCN)NC(=O)[C@@H](CC(C)C)NC(=O)[C@H](C)N(C)C(=O)[C@H](Cc3ccc(OCC(=O)O)cc3)NC(=O)[C@H](Cc3ccc(-c4ccccc4)cc3)NC(=O)[C@H](Cc3ccc(C(=O)O)cc3)NC2=O)c1 [Example 1270] ({CH2CO}-[Dab](Piv)Y(Carboxymethyl)D[Phe(3-Me)][Phe(4-COOH)][Bip]Y(Carboxymethyl)[NMeA][dL][Dab][Cha]VQC[Dab][Aun]-OH; thioether N-14) | 61.9

Other lines, results leading:

Row | IC50 [nM] | Compound
7 | 123 | CC(C)C[C@@H]1NC(=O)[C@H](Cc2c[nH]c3ccccc23)NC(=O)[C@H](CC(=O)O)NC(=O)[C@H](Cc2ccc(C(=O)O)cc2)NC(=O)[C@H](CCCCNC(=N)N)NC(=O)CSC[C@@H](C(=O)N[C@@H](C)C(=O)N[C@@H](CCN)C(=O)NCCCCCCCCCCCCCCC(=O)O)NC(=O)[C@H](CO)NC(=O)[C@H](C(C)C)NC(=O)[C@H](CC2CCCCC2)NC(=O)[C@H](CCN)NC(=O)[C@@H](CC(C)C)NC(=O)[C@H](C)N(C)C(=O)[C@H](C(C)C)NC(=O)[C@H](Cc2ccc(-c3ccccc3)cc2)NC1=O [Example 2001] ({CH2CO}-[hArg][Phe(4-COOH)]DWL[Bip]V[NMeA][dL][Dab][Cha]VSCA[Dab]-{NH(CH2)14COOH}; thioether N-14)
8 | 38.5 | CC(C)C[C@H]1NC(=O)[C@H](C)N(C)C(=O)[C@H](C(C)C)NC(=O)[C@H](Cc2ccc(-c3ccccc3)cc2)NC(=O)[C@H](C(C)C)NC(=O)[C@H](Cc2c[nH]c3ccccc23)NC(=O)[C@H](CC(=O)O)NC(=O)[C@H](Cc2ccc(C(=O)O)cc2)NC(=O)[C@H](Cc2ccc(OCC(=O)O)cc2)NC(=O)CSC[C@@H](C(=O)N[C@@H](CCCCN)C(=O)NCCOCCOCC(=O)NCCCCCCCCCCC(=O)O)NC(=O)[C@H](CO)NC(=O)[C@H](C(C)C)NC(=O)[C@H](CC2CCCCC2)NC(=O)[C@@H](CCN)NC1=O [Example 2112] ({CH2CO}-Y(Carboxymethyl)[Phe(4-COOH)]DWV[Bip]V[NMeA][dL][dDab][Cha]VSCK[AEEA][Aun]-OH; thioether N-14)
9 | 51.1 | Cc1cccc(C[C@@H]2NC(=O)[C@H](CC(=O)O)NC(=O)[C@H](Cc3ccc(C(=O)O)cc3)NC(=O)[C@H](Cc3ccncc3)NC(=O)CSC[C@@H](C(=O)N[C@@H](CCN)C(=O)NCCOCCOCC(=O)NCCCCCCCCCCC(=O)O)NC(=O)[C@H](CCCN)NC(=O)[C@H](C(C)C)NC(=O)[C@H](CC3CCCCC3)NC(=O)[C@H](CCN)NC(=O)[C@@H](CC(C)C)NC(=O)[C@H](C)N(C)C(=O)[C@H](CCCNC(N)=O)NC(=O)[C@H](Cc3ccc(-c4ccccc4)cc3)NC(=O)[C@H](Cc3ccc(OCC(=O)O)cc3)NC2=O)c1 [Example 1406] ({CH2CO}-[4Pal][Phe(4-COOH)]D[Phe(3-Me)]Y(Carboxymethyl)[Bip][Cit][NMeA][dL][Dab][Cha]V[Orn]C[Dab][AEEA][Aun]-OH; thioether N-14)
10 | 46 | Cc1cccc(C[C@@H]2NC(=O)[C@H](CC(=O)O)NC(=O)[C@H](Cc3ccc(OCC(=O)O)cc3)NC(=O)[C@H](C(C)O)NC(=O)CSC[C@@H](C(=O)N[C@@H](CCN)C(=O)NCCCCCCCCCCC(=O)O)NC(=O)[C@H](C(C)O)NC(=O)[C@H](C(C)C)NC(=O)[C@H](CC3CCCCC3)NC(=O)[C@H](CCN)NC(=O)[C@@H](CC(C)C)NC(=O)[C@H](C)N(C)C(=O)[C@H](CCC(=O)O)NC(=O)[C@H](Cc3ccc(-c4ccccc4)cc3)NC(=O)[C@H](CCC(=O)O)NC2=O)c1 (stereo partly drawn) [Example 2303] ({CH2CO}-[Thr(3ξ)]Y(Carboxymethyl)D[Phe(3-Me)]E[Bip]E[NMeA][dL][Dab][Cha]V[Thr(3ξ)]C[Dab][Aun]-OH; thioether N-14)
11 | 206 | CCC(C)[C@@H]1NC(=O)[C@H](CC(C)C)NC(=O)[C@H](CCN)NC(=O)[C@@H](CC(C)C)NC(=O)[C@H](C)N(C)C(=O)[C@H](C(C)CC)NC(=O)[C@H](Cc2ccc(-c3ccccc3)cc2)NC(=O)[C@H](C(C)CC)NC(=O)[C@H](Cc2c[nH]c3ccccc23)NC(=O)[C@H](CC(=O)O)NC(=O)[C@H](Cc2ccc(OCC(=O)O)cc2)NC(=O)[C@H](C(C)O)NC(=O)CSC[C@@H](C(=O)N[C@@H](CN)C(=O)NCCOCCOCC(=O)NCCCCCCCCCCC(=O)O)NC(=O)[C@H](CO)NC1=O (stereo partly drawn) [Example 2081] ({CH2CO}-[Thr(3ξ)]Y(Carboxymethyl)DW[Ile(3ξ)][Bip][Ile(3ξ)][NMeA][dL][Dab]L[Ile(3ξ)]SC[Dap][AEEA][Aun]-OH; thioether N-14)
12 | 17.8 | CC(C)C[C@@H]1NC(=O)[C@H](Cc2c[nH]c3ccccc23)NC(=O)[C@H](CC(=O)O)NC(=O)[C@H](Cc2ccc(C(=O)O)cc2)NC(=O)[C@H](Cc2ccc(OCC(=O)O)cc2)NC(=O)CSC[C@@H](C(=O)N[C@@H](CCCCN)C(=O)NCCCCCCCCCCC(=O)O)NC(=O)[C@H](CCCN)NC(=O)[C@H](C(C)C)NC(=O)[C@H](CC2CCCCC2)NC(=O)[C@H](CCN)NC(=O)[C@@H](CC(C)C)NC(=O)[C@H](C)N(C)C(=O)[C@H](C(C)C)NC(=O)[C@H](Cc2ccc(-c3ccccc3)cc2)NC1=O [Example 2159] ({CH2CO}-Y(Carboxymethyl)[Phe(4-COOH)]DWL[Bip]V[NMeA][dL][Dab][Cha]V[Orn]CK[Aun]-OH; thioether N-14)

Source: patent US20260070945A1, “MACROCYCLIC IMMUNOMODULATORS” (Bristol-Myers Squibb Company, priority 2022, published 2026)
